Target: T1, human leukocyte elastase (HLE) (Homo sapiens, UniProt P08246)
T1 construct: purchased Calbiochem
T1 sequence (P08246 30-267): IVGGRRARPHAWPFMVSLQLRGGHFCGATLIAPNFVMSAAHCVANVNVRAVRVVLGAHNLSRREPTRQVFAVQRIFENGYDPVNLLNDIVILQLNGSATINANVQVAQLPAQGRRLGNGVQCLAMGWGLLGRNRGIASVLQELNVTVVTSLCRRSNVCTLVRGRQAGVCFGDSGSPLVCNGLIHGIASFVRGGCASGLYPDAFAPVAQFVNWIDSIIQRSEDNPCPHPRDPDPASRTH
Experiment: Kinetic parameters of HLE inhibition, fluorogenic substrate N-methoxysuccinyl-alanyl-alanyl-prolyl-valyl-7-amido-4-methylcoumarin
Type: biochemical
Details: HLE (Calbiochem), 37°C, phosphate buffer pH 7.4, I= 0.15, 1% DMSO and 1% MeCN; for Ki: apparent dissociation constant of HLE-inhibitor complex at steady state; for k₅/Ki: rate of formation of HLE-inhibitor complex
Description: The inhibitory activity on human leukocyte elastase (HLE) of Δ-cephem sulphones of the invention, designated as Compound 4 and Compound 5 in Table 1 above, and of the Δ³-cephem sulphone Merck S.&D. L-659,286, which, to our best knowledge, is the most advanced β-lactam product under study as an HLE-inhibitor (Ann. Rev. Resp. Dis. 1988, 137:204; Journal of Cellular Biochemistry 1989, 39:47), was compared as described below.
The reference compound 7α-methoxy-3-(2-methyl-5-oxo-6-hydroxy-2,5-dihydro-1,2,4-triazin-3-yl)thiomethyl-3-cephem-4-pyrrolidine-carboxamide-1,1-dioxide (Merck's code-name; L-659,286) was synthesized in our laboratories from 7-amino-3-desacetoxy-cephalosporanic acid. Its structural identity and purity (≥95%) was confirmed by spectral and analytical data.
The kinetic parameters of HLE (Calbiochem) inhibition were determined at 37°C in phosphate buffer (pH 7.4, I= 0.15) with 1% DMSO and 1% MeCN as solubilizing vehicles, monitoring fluorometrically (λex= 383 nm; λem = 455 nm) the release of 7-amino-4-methylcoumarin from the fluorogenic substrate N-methoxysuccinyl-alanyl-alanyl-prolyl-valyl-7-amido-4-methylcoumarin. Best fit to the progress curves was obtained by a two-step mechanism (mechanism B in J.F. Morrison, TIBS 1982, 7:102; see also J.F. Morrison and C.T. Walsh, Advances in Enzymology, vol. 61, A. Meister editor, John Wiley & Sons 1988): [drawing 9] Product release versus time was analysed using the following function: [P] = vs t + (vi -vs (1-e)^-kt )/k [formula] wherein [P] = product concentration, vs = steady state rate, vi = initial rate of product release and k = k6 + (k5 /Ki )([I])/(1 + [S]/Km + [I]/Ki); Ki = k4 /k3 [formula] wherein [I] and [S] = inhibitor and substrate concentration, and Km = Michaelis constant for the enzymesubstrate pair (independently determined under the same experimental conditions). At steady state, inhibition is fully determined by the steady-state inhibition constant Ki* (steady state): Ki * = Ki (k6)/(k5 + k6) [formula]

In the case of `COC(=O)C1(/C=C\C(=O)OC(C)(C)C)C(C)=CS(=O)(=O)[C@@H]2[C@@H](Cl)C(=O)N21` (stereo partly drawn) [Compound 4, Methyl 7α-chloro-4-[(Z)-2-tert-butoxycarbonylethenyl]-3-methyl-2-cephem-4-carboxylate-1,1-dioxide], the Ki is reported as 0.064 µM and the k₅/Ki is reported as “k₅/Ki = 7,200 M⁻¹s⁻¹”.
For `CO[C@H]1C(=O)N2C(C(=O)N3CCCC3)=C(CSc3nc(=O)c(O)nn3C)CS(=O)(=O)[C@H]12` [Reference compound, 7α-methoxy-3-(2-methyl-5-oxo-6-hydroxy-2,5-dihydro-1,2,4-triazin-3-yl)thiomethyl-3-cephem-4-pyrrolidine-carboxamide-1,1-dioxide, reference compound], the Ki was 0.14 µM and the k₅/Ki was “k₅/Ki = 8,000 M⁻¹s⁻¹”.
Molecule `COC(=O)C1(C=CC(=O)OC(C)(C)C)C(C)=C(/C=C/C(=O)OC(C)(C)C)S(=O)(=O)[C@@H]2[C@@H](Cl)C(=O)N21` (stereo partly drawn) [Compound 5, Methyl-7α-Chloro-2,4-bis[2-tert-butoxycarbonylethenyl]-3-methyl-2-cephem-4-carboxylate-1,1-dioxide] has a Ki of 0.0052 µM.
